# Experimental data published in PubChem BioAssay AID1963864 (Molecular Pharmacology Branch, DTP, NCI, 2024).
# Tested on: KRAS PDC multicell spheroid viability
# Assay: Anticancer human tumor 521955-158-R6-J3-PDC patient-derived pancreatic carcinoma cell line growth inhibition [KRAS2]
# Conditions: for IC50: curve of first compound; for viability, T/C: stronger effect = lower value
# Summary of the method: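 Combination screen of spheroid viability in tumor-cell co-cultures with endothelial (HUVEC) and mesenchymal stem cell stroma. Each agent was tested in half-log dilutions, topping at clinical Cmax or at 10 microM without a known Cmax.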
# [1] = second compound 0.0316 µM, first compound 0.0316 µM
# [2] = second compound 0.0316 µM, first compound 0.1 µM
# [3] = second compound 0.0316 µM, first compound 0.316 µM
# [4] = second compound 0.0316 µM, first compound 1 µM
# [5] = second compound 0.0316 µM, first compound 3.16 µM
# [6] = second compound 0.0316 µM, first compound 10 µM
# [7] = second compound 0.1 µM, first compound 0.0316 µM
# [8] = second compound 0.1 µM, first compound 0.1 µM
# [9] = second compound 0.1 µM, first compound 0.316 µM
# [10] = second compound 0.1 µM, first compound 1 µM
# [11] = second compound 0.1 µM, first compound 3.16 µM
# [12] = second compound 0.1 µM, first compound 10 µM
# [13] = second compound 0.316 µM, first compound 0.0316 µM
# [14] = second compound 0.316 µM, first compound 0.1 µM
# [15] = second compound 0.316 µM, first compound 0.316 µM
# [16] = second compound 0.316 µM, first compound 1 µM
# [17] = second compound 0.316 µM, first compound 3.16 µM
# [18] = second compound 0.316 µM, first compound 10 µM
# [19] = second compound 1 µM, first compound 0.0316 µM
# [20] = second compound 1 µM, first compound 0.1 µM
# [21] = second compound 1 µM, first compound 0.316 µM
# [22] = second compound 1 µM, first compound 1 µM
# [23] = second compound 1 µM, first compound 3.16 µM
# [24] = second compound 1 µM, first compound 10 µM
# [25] = second compound 3.16 µM, first compound 0.0316 µM
# [26] = second compound 3.16 µM, first compound 0.1 µM
# [27] = second compound 3.16 µM, first compound 0.316 µM
# [28] = second compound 3.16 µM, first compound 1 µM
# [29] = second compound 3.16 µM, first compound 3.16 µM
# [30] = second compound 3.16 µM, first compound 10 µM
# [31] = second compound 0.0316 µM, first compound 0.000316 µM
# [32] = second compound 0.0316 µM, first compound 0.001 µM
# [33] = second compound 0.0316 µM, first compound 0.00316 µM
# [34] = second compound 0.0316 µM, first compound 0.01 µM
# [35] = second compound 0.1 µM, first compound 0.000316 µM
# [36] = second compound 0.1 µM, first compound 0.001 µM
# [37] = second compound 0.1 µM, first compound 0.00316 µM
# [38] = second compound 0.1 µM, first compound 0.01 µM
# [39] = second compound 0.316 µM, first compound 0.000316 µM
# [40] = second compound 0.316 µM, first compound 0.001 µM
# [41] = second compound 0.316 µM, first compound 0.00316 µM
# [42] = second compound 0.316 µM, first compound 0.01 µM
# [43] = second compound 1 µM, first compound 0.000316 µM
# [44] = second compound 1 µM, first compound 0.001 µM
# [45] = second compound 1 µM, first compound 0.00316 µM
# [46] = second compound 1 µM, first compound 0.01 µM
# [47] = second compound 3.16 µM, first compound 0.000316 µM
# [48] = second compound 3.16 µM, first compound 0.001 µM
# [49] = second compound 3.16 µM, first compound 0.00316 µM
# [50] = second compound 3.16 µM, first compound 0.01 µM
# 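Note: drug exposure lasted seven days.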
# 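Throughout, for viability, T/C: 100% = DMSO vehicle wells and lower means fewer viable cells.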
SMILES,IC50 (second compound 0.0316 µM) [nM],IC50 (second compound 0.1 µM) [nM],IC50 (second compound 0.316 µM) [nM],IC50 (second compound 1 µM) [nM],IC50 (second compound 3.16 µM) [nM],"viability, T/C [1] [%]","viability, T/C [2] [%]","viability, T/C [3] [%]","viability, T/C [4] [%]","viability, T/C [7] [%]","viability, T/C [8] [%]","viability, T/C [9] [%]","viability, T/C [10] [%]","viability, T/C [13] [%]","viability, T/C [14] [%]","viability, T/C [15] [%]","viability, T/C [19] [%]","viability, T/C [20] [%]","viability, T/C [25] [%]","viability, T/C [26] [%]",also measured
CC(C)NCC(C(=O)N1CCN(c2ncnc3c2C(C)CC3O)CC1)c1ccc(Cl)cc1 (stereo not given) + C=CC(=O)N1CCN(c2nc(OCC3CCCN3C)nc3c2CCN(c2cccc4cccc(C)c24)C3)CC1CC#N,> 10000,> 10000,> 10000,> 10000,< 31.6,80.4,86.4,84.4,75.9,76.8,87.5,74.4,66.2,79.1,74.2,74.3,63.3,59,43.9,38,"viability, T/C [5]: 76.3%; viability, T/C [6]: 65%; viability, T/C [11]: 74.3%; viability, T/C [12]: 57.4%; viability, T/C [16]: 66.7%; viability, T/C [17]: 74.3%; viability, T/C [18]: 65.1%; viability, T/C [21]: 68.5%; viability, T/C [22]: 58.9%; viability, T/C [23]: 58.3%; viability, T/C [24]: 57.4%; viability, T/C [27]: 35.2%; viability, T/C [28]: 29.1%; viability, T/C [29]: 25.1%; viability, T/C [30]: 15.8%"
CC(C)n1nc(-c2ccc3oc(N)nc3c2)c2c(N)ncnc21 + C=CC(=O)N1CCN(c2nc(OCC3CCCN3C)nc3c2CCN(c2cccc4cccc(C)c24)C3)CC1CC#N,69.1,67.9,72.8,87.1,3.47,63,44.8,–,–,59.8,44.2,–,–,60.3,45.9,–,61.2,47,39.6,21.8,"viability, T/C [31]: 98%; viability, T/C [32]: 86.7%; viability, T/C [33]: 85.4%; viability, T/C [34]: 62.3%; viability, T/C [35]: 90.8%; viability, T/C [36]: 86.4%; viability, T/C [37]: 78.2%; viability, T/C [38]: 77.6%; viability, T/C [39]: 94.2%; viability, T/C [40]: 90.7%; viability, T/C [41]: 80.6%; viability, T/C [42]: 74.4%; viability, T/C [43]: 81.8%; viability, T/C [44]: 68.6%; viability, T/C [45]: 73.3%; viability, T/C [46]: 54.2%; viability, T/C [47]: 60.7%; viability, T/C [48]: 41.7%; viability, T/C [49]: 54.5%; viability, T/C [50]: 8.94%"
CC1(C)CCC(CN2CCN(c3ccc(C(=O)NS(=O)(=O)c4ccc(NCC5CCOCC5)c([N+](=O)[O-])c4)c(Oc4cnc5[nH]ccc5c4)c3)CC2)=C(c2ccc(Cl)cc2)C1 + C=CC(=O)N1CCN(c2nc(OCC3CCCN3C)nc3c2CCN(c2cccc4cccc(C)c24)C3)CC1CC#N,3860,4480,2680,1920,< 31.6,104,97.5,95.6,92.7,93.5,97.3,90.6,91.9,92,95.8,101,82.4,78.2,45.2,48.4,"viability, T/C [5]: 57.3%; viability, T/C [6]: 14.4%; viability, T/C [11]: 64.2%; viability, T/C [12]: 17%; viability, T/C [16]: 97.2%; viability, T/C [17]: 42.1%; viability, T/C [18]: 15.4%; viability, T/C [21]: 80.1%; viability, T/C [22]: 76.9%; viability, T/C [23]: 29.4%; viability, T/C [24]: 6.62%; viability, T/C [27]: 24.2%; viability, T/C [28]: 8.37%; viability, T/C [29]: 0.18%; viability, T/C [30]: 0.23%"
CCN1CCN(Cc2ccc(Nc3ncc(F)c(-c4cc(F)c5nc(C)n(C(C)C)c5c4)n3)nc2)CC1 + C=CC(=O)N1CCN(c2nc(OCC3CCCN3C)nc3c2CCN(c2cccc4cccc(C)c24)C3)CC1CC#N,> 1000,> 1000,> 1000,> 1000,< 3.16,76,76.1,82.8,95.1,81.4,85.7,82.9,98.8,76.5,77.2,87.8,71.3,65.2,25.9,17.1,"viability, T/C [33]: 94.4%; viability, T/C [34]: 81.9%; viability, T/C [37]: 88.3%; viability, T/C [38]: 93.6%; viability, T/C [41]: 86.1%; viability, T/C [42]: 86.4%; viability, T/C [16]: 91.9%; viability, T/C [45]: 72%; viability, T/C [46]: 84.5%; viability, T/C [21]: 79.9%; viability, T/C [22]: 103%; viability, T/C [49]: 24.9%; viability, T/C [50]: 26.4%; viability, T/C [27]: 15.3%; viability, T/C [28]: 4.09%"
COc1cc2nccc(Oc3ccc(NC(=O)C4(C(=O)Nc5ccc(F)cc5)CC4)cc3)c2cc1OC + C=CC(=O)N1CCN(c2nc(OCC3CCCN3C)nc3c2CCN(c2cccc4cccc(C)c24)C3)CC1CC#N,> 10000,> 10000,> 10000,> 10000,< 31.6,103,111,98.6,107,106,102,117,116,103,99.3,96.5,81.1,80.8,43.3,44,"viability, T/C [5]: 126%; viability, T/C [6]: 128%; viability, T/C [11]: 143%; viability, T/C [12]: 133%; viability, T/C [16]: 109%; viability, T/C [17]: 138%; viability, T/C [18]: 140%; viability, T/C [21]: 83.3%; viability, T/C [22]: 82.3%; viability, T/C [23]: 123%; viability, T/C [24]: 111%; viability, T/C [27]: 33.7%; viability, T/C [28]: 15.4%; viability, T/C [29]: 1.6%; viability, T/C [30]: 17.8%"
Cn1ncnc1[C@H]1c2n[nH]c(=O)c3cc(F)cc(c23)N[C@@H]1c1ccc(F)cc1 + C=CC(=O)N1CCN(c2nc(OCC3CCCN3C)nc3c2CCN(c2cccc4cccc(C)c24)C3)CC1CC#N,> 100,> 100,> 100,> 100,< 0.316,97,90.8,–,–,98.9,89.4,–,–,92.2,91,–,78.6,85.4,52.6,53.6,"viability, T/C [31]: 100%; viability, T/C [32]: 100%; viability, T/C [33]: 98.1%; viability, T/C [34]: 105%; viability, T/C [35]: 94.2%; viability, T/C [36]: 94.5%; viability, T/C [37]: 104%; viability, T/C [38]: 91.9%; viability, T/C [39]: 94.1%; viability, T/C [40]: 89.9%; viability, T/C [41]: 95.1%; viability, T/C [42]: 88.4%; viability, T/C [43]: 83.8%; viability, T/C [44]: 78.6%; viability, T/C [45]: 88.3%; viability, T/C [46]: 91.7%; viability, T/C [47]: 50.4%; viability, T/C [48]: 43.3%; viability, T/C [49]: 53.2%; viability, T/C [50]: 54.5%"
